Reference: patent publication US4481201A, “Pharmaceutical composition containing N,N^3 -di-(β-bromopropionyl)-N^1,N^2 -dispirotripiperazinium dichloride” (Vsesojuzny Nauchno-Issledovatelsky Khimoko-Farmasevtichesky …, priority 1981, dated 1984)
Read-outs that look alike come from different tables or passages of the source.

Columns and labels:
[1] = Withdrawal of radioactivity from the rats' organism; format: in vivo; design: concentration or dose not given beside the values; settings: C^14-labeled
Description: In the case of administration of the preparation according to the present invention labeled with C^14, a higher level of radioactivity in blood is observed than in the case of prospidin labeled with C^14. A higher rate of accumulation of the preparation according to the present invention as compared to prospidin is observed in larynx, windpipe, bronchi, bone marrow, tumor and thyroid gland. The preparation according to the present invention labeled with C^14 is withdrawn from the organism within 24 hours after the intravenous administration mainly with urine, while C^14 --labeled prospidin is retained in the organism for a longer period.

[2] = Toxicity on single and repeated administration to mice; format: in vivo
Protocol: (3) acute toxicity of the compounds upon a single and repeated administration to white noninbred mice places into standard cages with 8 animals in each.
In the investigation of toxic properties of the compounds according to the present invention there has been determined the absolutely lethal dose (DL95), average lethal dose (DL50) and MTD. For compounds 1 and 2 there were determined DL95 and DL50 on healthy white mice with the body mass of 18-21 g at a single and repeated (once a day, daily for 7 days) intraperitoneal administration.

leukemia P-388 = experiment: Life span of mice with transplantable leukemia P-388; format: in vivo, inbred mice
Description: (§1) The antitumor activity has been studied on white rats weighing 110-130 g, as well as on white noninbred and inbred mice weighing 17-21 g with ligated tumors. The treatment is started 5-7 days transplanting of solid tumors and the following day after the transplanting of leukotic strains. Use has been made of the following transplantable strains of the tumors:
(§2) (3) inbred mice: leukemia La, leukemia L1210 and P-388.
(§3) The activity of compounds relative to leukosis has been assessed by the life span (It) of treated animals as compared to the control ones. It --index of suppression of leukosis development is calculated by the formula: [formula]

sarcoma M-1 = experiment: Growth of graft sarcoma M-1 in rats; format: in vivo; settings: rats, 5 injections
Description: as §1
(§4) (1) rats: Ienssen's sarcoma, sarcoma 45, sarcoma M-1, sarcoma 536;
(§5) The compounds of the general formula (I), wherein X represents Cl^- (compound 1), Br^- (compound 2) are well-soluble in an isotonic solution of sodium chloride and they are administered intraperitoneally. The doses of the compounds have been calculated in mg per kg of the animal bodyweight.

[3] = Growth of graft sarcoma M-1 in rats; format: in vivo; settings: rat, in vivo, ip, rats with sarcoma M-1, repeated intraperitoneal administration; read-out: Maximum tolerable dose (MTD)
Description: as §1, §4, §5

leukemia La = experiment: Life span of mice with transplantable leukemia La; format: in vivo, inbred mice
Description: as §1, §2, §3

sarcoma AK = experiment: Growth of graft sarcoma AK in mice; format: in vivo, noninbred white mice; settings: mice
Description: as §1
(§6) (2) noninbred white mice: sarcoma 180, sarcoma AK, sarcoma 37, carcinoma HK;
as §5

[4] = Growth of graft sarcoma AK in mice; format: in vivo, noninbred white mice; settings: mouse, in vivo, ip; mice with sarcoma AK, repeated intraperitoneal administration; read-out: Maximum tolerable dose (MTD)
Description: as §1, §6, §5

Ienssen's sarcoma = experiment: Growth of graft Ienssen sarcoma in rats; format: in vivo; settings: for Ch/T chemotherapeutical index (ratio of MTD to minimum effective dose): Ienssen sarcoma
Description: as §1, §4, §5

[5] = Growth of graft Ienssen sarcoma in rats; format: in vivo; settings: rat, in vivo, ip, rats with Ienssen sarcoma, repeated intraperitoneal administration; read-out: Maximum tolerable dose (MTD)
Description: as §1, §4, §5

sarcoma 536 = experiment: Growth of graft sarcoma 536 in rats; format: in vivo; settings: rats
Description: as §1, §4, §5

[6] = Growth of graft sarcoma 536 in rats; format: in vivo; settings: rat, in vivo, ip, rats with sarcoma 536, repeated intraperitoneal administration; read-out: Maximum tolerable dose (MTD)
Description: as §1, §4, §5

transplantable leukemia = experiment: Activity relative to leukoses of inbred mice (overall); format: in vivo
Description: (2) activity of the compounds relative to leukoses of inbred mice;
as §1, §2, §3

leukemia L1210 = experiment: Life span of mice with transplantable leukemia L1210; format: in vivo, inbred mice
Description: as §1, §2, §3

[7] = 24 hours after intravenous administration
[8] = mice, repeated intraperitoneal administration (once a day, daily for 7 days)
[9] = mice, repeated intraperitoneal administration (once a day, daily for 7 days), listed as Preparation of the invention
[10] = mice, single intraperitoneal administration
[11] = mice with transplantable leukemia P-388
[12] = mice with transplantable leukemia La
[13] = 75 mg/kg intraperitoneally, 8 injections
[14] = 125 mg/kg intraperitoneally, 6 injections
[15] = hypodermally, 68.6 mg/kg, 5 injections
[16] = intramuscularly, 55.5 mg/kg, 6 injections
[17] = rats, 1 mg/kg intraperitoneally, 7 injections
[18] = rats, 4 mg/kg intraperitoneally, 6 injections
[19] = rats, 6 mg/kg intraperitoneally, 6 injections
[20] = rats, 10 mg/kg intraperitoneally, 7 injections
[21] = rats, 20 mg/kg intraperitoneally, 7 injections
[22] = rats, 40 mg/kg intraperitoneally, 5 injections
[23] = rats, 90 mg/kg intraperitoneally, 7 injections
[24] = rats, 125 mg/kg intraperitoneally, 7 injections
[25] = rats, per os, 142 mg/kg, 7 injections
[26] = 50 mg/kg intraperitoneally, 7 injections
[27] = 70 mg/kg intraperitoneally, 6 injections
[28] = mice with transplantable leukemia L1210

## O=C(CCBr)N1CC[N+]2(CC1)CC[N+]1(CCN(C(=O)CCBr)CC1)CC2 [Compound 1, N,N^3 -di-(β-bromopropionyl)-N^1,N^2 -dispirotripiperazinium dichloride]
[1]; [7]
  Withdrawal of radioactivity, Feces: 1.6%
  Withdrawal of radioactivity, Total: 99.9%
  Withdrawal of radioactivity, Urina: 98.3%
[1]; within 3 hours after intravenous administration
  Withdrawal of radioactivity, Urina: 80.7%
[2]; less toxic than prospidin, DL50 single administration to mice
  toxicity in comparison with prospidin: 2 times
[2]; mice, intraperitoneal administration
  Ik index of toxic effect cumulation: 82
[2]; [8]
  DL50 (average lethal dose): 444 mg/kg
  DL95 (absolutely lethal dose): 577 mg/kg
[2]; [9]
  DL50 (average lethal dose): 444 mg/kg
  DL95 (absolutely lethal dose): 577 mg/kg
[2]; [10]
  DL50 (average lethal dose): 1,924 mg/kg
  DL95 (absolutely lethal dose): 2,272 mg/kg
[2]; mice, single intraperitoneal administration, listed as Preparation of the invention
  DL95 (absolutely lethal dose): 2272 mg/kg
[2]; mice, single intraperitoneal administration, listed as preparation according to the present invention
  DL50 (average lethal dose): 1,924 mg/kg
[2]; mouse, in vivo, ip, mice, single intraperitoneal administration, read-out: DL50 (average lethal dose)
  LD50: 1920 mg/kg
[2]; mouse, in vivo, ip, repeated intraperitoneal administration, read-out: MTD
  MTD: 149 mg/kg
Leukemia P-388; leukemia P-388
  extension of life span as compared to the control, factor: 2
Leukemia P-388; [11]
  It, % index of suppression of leukosis development: 103%
  Life span: 19.7 ± 0.2 days
Sarcoma M-1; 90 mg/kg intraperitoneally
  Change in the animal body weight, test: +7 g
  It, % tumor growth suppression index: +96%
Sarcoma M-1; 111 mg/kg intraperitoneally (MTD)
  Change in the animal body weight, test: +4 g
[3]
  MTD: 111 mg/kg
Leukemia La; leukemia La, MTD
  extension of life span of treated mice as compared to the control: 3 times
Leukemia La; [12]
  It, % index of suppression of leukosis development: 218%
  Life span: 21.2 ± 0.1 days
Sarcoma AK; [13]
  Change in the animal body weight, test: -3 g
  It, % tumor growth suppression index: +81%
Sarcoma AK; [14]
  Change in the animal body weight, test: -1 g
  It, % tumor growth suppression index: +62%
Sarcoma AK; 200 mg/kg intraperitoneally, 5 injections
  It, % tumor growth suppression index: +64%
Sarcoma AK; 250 mg/kg intraperitoneally (MTD), 6 injections
  Change in the animal body weight, test: -3 g
[4]
  MTD: 250 mg/kg
Ienssen's sarcoma
  Ch/T chemotherapeutical index (ratio of MTD to minimum effective dose): 60
Ienssen's sarcoma; listed as Preparation of the invention
  Ch/T chemotherapeutical index (ratio of MTD to minimum effective dose): 60
Ienssen's sarcoma; [15]
  Change in the bodyweight of animals, test: -6 g
  It, %: +86%
Ienssen's sarcoma; [16]
  Change in the bodyweight of animals, test: -11 g
  It, %: +78%
Ienssen's sarcoma; [17]
  Change in the animal body weight, test: -2 g
  It, % tumor growth suppression index: 0%
Ienssen's sarcoma; rats, 2 mg/kg intraperitoneally, 6 injections
  Change in the animal body weight, test: -1 g
Ienssen's sarcoma; [18]
  Change in the animal body weight, test: 0 g
  It, % tumor growth suppression index: +81%
Ienssen's sarcoma; [19]
  Change in the animal body weight, test: +10 g
  It, % tumor growth suppression index: +80%
Ienssen's sarcoma; [20]
  Change in the animal body weight, test: +4 g
  It, % tumor growth suppression index: +93%
Ienssen's sarcoma; [21]
  Change in the animal body weight, test: +30 g
  It, % tumor growth suppression index: +98%
Ienssen's sarcoma; [22]
  Change in the animal body weight, test: +20 g
  It, % tumor growth suppression index: +85%
Ienssen's sarcoma; [23]
  Change in the animal body weight, test: +6 g
  It, % tumor growth suppression index: +86%
Ienssen's sarcoma; [24]
  Change in the animal body weight, test: +4 g
  It, % tumor growth suppression index: +89%
Ienssen's sarcoma; rats, 160 mg/kg intraperitoneally (MTD), 7 injections
  Change in the animal body weight, test: -12 g
Ienssen's sarcoma; [25]
  Change in the bodyweight of animals, test: -15 g
  It, %: +55%
Ienssen's sarcoma; wider than prospidin
  range of therapeutical action as compared to prospidin: 2.5 fold
[5]
  MTD: 160 mg/kg
Sarcoma 536
  tumor growth suppression class, Sarcoma 536: ++ (tumor growth suppression by 80-95%)
Sarcoma 536; [26]
  Change in the animal body weight, test: -15 g
  It, % tumor growth suppression index: +45%
Sarcoma 536; [27]
  Change in the animal body weight, test: -22 g
  It, % tumor growth suppression index: +55%
Sarcoma 536; 140 mg/kg intraperitoneally (MTD), 6 injections
  Change in the animal body weight, test: -32 g
Sarcoma 536; 140 mg/kg intraperitoneally (MTD), 6 injections, listed as preparation of the invention, 140 mg/kg
  It, % tumor growth suppression index: 78%
[6]
  MTD: 140 mg/kg
Transplantable leukemia
  effect on transplantable leukemia in mice: clearly pronounced antileukotic effect
Transplantable leukemia; listed as preparation according to the present invention
  effect on transplantable leukemia in mice: pronounced antileucotic effect
Leukemia L1210; leukemia L1210
  extension of life span as compared to the control, factor: 1.03
Leukemia L1210; [28]
  It, % index of suppression of leukosis development: 38%
  Life span: 10.6 ± 2 days
